{
  "source": "the supplement of paper PMC10307832",
  "test_in_all_cases": "relative viability (nuclei count vs DMSO), 5 days (fraction); higher = more cells survive",
  "key": {"GSK126 + Trametinib": {"compound": "CC[C@H](C)N1C=C(C2=C(C=C(C=C21)C3=CN=C(C=C3)N4CCNCC4)C(=O)NCC5=C(C=C(NC5=O)C)C)C [GSK126] + CC(=O)Nc1cccc(-n2c(=O)n(C3CC3)c(=O)c3c(Nc4ccc(I)cc4F)n(C)c(=O)c(C)c32)c1 [Trametinib] (partner 0.02 µM)", "outline": "(§1)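 Lung cancer cell lines, seeded in 1536-well plates, were treated the following day by pin tool with a single drug or with five library-drug doses (not always all listed) in √10 steps on top of a fixed anchor-drug dose. Cells were fixed and nuclei stained in one step after 5 days, and nuclei were counted. Relative viability is the nuclei count for treated wells divided by that for vehicle wells, reported as medians of duplicate plates.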"}, "GSK126 + Linsitinib": {"compound": "CC[C@H](C)N1C=C(C2=C(C=C(C=C21)C3=CN=C(C=C3)N4CCNCC4)C(=O)NCC5=C(C=C(NC5=O)C)C)C [GSK126] + C[C@]1(O)C[C@@H](c2nc(-c3ccc4ccc(-c5ccccc5)nc4c3)c3c(N)nccn32)C1 [Linsitinib] (partner 1 µM)", "outline": "as §1"}, "GSK126 + Alpelisib": {"compound": "CC[C@H](C)N1C=C(C2=C(C=C(C=C21)C3=CN=C(C=C3)N4CCNCC4)C(=O)NCC5=C(C=C(NC5=O)C)C)C [GSK126] + Cc1nc(NC(=O)N2CCC[C@H]2C(N)=O)sc1-c1ccnc(C(C)(C)C(F)(F)F)c1 [Alpelisib] (partner 2 µM)", "outline": "as §1"}, "MLN4924 + Tozasertib": {"compound": "NS(=O)(=O)OC[C@@H]1C[C@@H](n2ccc3c(N[C@H]4CCc5ccccc54)ncnc32)C[C@@H]1O [MLN4924] + Cc1cc(Nc2cc(N3CCN(C)CC3)nc(Sc3ccc(NC(=O)C4CC4)cc3)n2)n[nH]1 [Tozasertib] (partner 0.1 µM)", "outline": "as §1"}},
  "data": [
    {"cell line": "UMC-11", "values": [
      {"measurement": "relative viability", "setting": "GSK126 + Trametinib; first compound 0.08 µM", "value": 0.744},
      {"measurement": "relative viability", "setting": "GSK126 + Trametinib; first compound 0.253 µM", "value": 0.774},
      {"measurement": "relative viability", "setting": "GSK126 + Trametinib; first compound 0.8 µM", "value": 0.771},
      {"measurement": "relative viability", "setting": "GSK126 + Trametinib; first compound 2.53 µM", "value": 0.714},
      {"measurement": "relative viability", "setting": "GSK126 + Trametinib; first compound 8 µM", "value": 0.728},
      {"measurement": "relative viability", "setting": "GSK126 + Linsitinib; first compound 0.08 µM", "value": 1.14},
      {"measurement": "relative viability", "setting": "GSK126 + Linsitinib; first compound 0.253 µM", "value": 0.978},
      {"measurement": "relative viability", "setting": "GSK126 + Linsitinib; first compound 0.8 µM", "value": 1.04},
      {"measurement": "relative viability", "setting": "GSK126 + Linsitinib; first compound 2.53 µM", "value": 1.02},
      {"measurement": "relative viability", "setting": "GSK126 + Linsitinib; first compound 8 µM", "value": 1.15},
      {"measurement": "relative viability", "setting": "GSK126 + Alpelisib; first compound 0.08 µM", "value": 1.03},
      {"measurement": "relative viability", "setting": "GSK126 + Alpelisib; first compound 0.253 µM", "value": 1.1},
      {"measurement": "relative viability", "setting": "GSK126 + Alpelisib; first compound 0.8 µM", "value": 0.983},
      {"measurement": "relative viability", "setting": "GSK126 + Alpelisib; first compound 2.53 µM", "value": 0.961},
      {"measurement": "relative viability", "setting": "GSK126 + Alpelisib; first compound 8 µM", "value": 1.17},
      {"measurement": "relative viability", "setting": "MLN4924 + Tozasertib; first compound 0.04 µM", "value": 0.205},
      {"measurement": "relative viability", "setting": "MLN4924 + Tozasertib; first compound 0.1265 µM", "value": 0.212},
      {"measurement": "relative viability", "setting": "MLN4924 + Tozasertib; first compound 0.4 µM", "value": 0.215},
      {"measurement": "relative viability", "setting": "MLN4924 + Tozasertib; first compound 1.265 µM", "value": 0.19},
      {"measurement": "relative viability", "setting": "MLN4924 + Tozasertib; first compound 4 µM", "value": 0.184}
    ]}
  ]
}
